# Patent US5393743A, “Erythromycin derivatives” (Abbott Laboratories, priority 1993, dated 1995)
# Where two headings read alike, the source gives them in different places.
# Experiments:
# [1] = test system: Pseudomonas aeruginosa K799/61; experiment: In vitro antibacterial activity, agar dilution MIC; format: cell-based; conditions: BHI agar, 35°-37° C., 20 to 24 hours
# [2] = test system: Mycobacterium smegmatis ATCC 114; experiment: In vitro antibacterial activity, agar dilution MIC; format: cell-based; conditions: Mycolicibacterium smegmatis, ATCC114, BHI agar, 35°-37° C., 20 to 24 hours
# [3] = test system: Staphylococcus aureus A5177; experiment: In vitro antibacterial activity, agar dilution MIC; format: cell-based; conditions: Staphylococcus aureus A5177, BHI agar, 35°-37° C., 20 to 24 hours
# Experimental: (§1) Representative compounds of the present invention were assayed in vitro for antibacterial activity as follows: Twelve petri dishes containing successive aqueous dilutions of the test compound mixed with 10 mL of sterilized Brain Heart Infusion (BHI) agar (Difco 0418-01-5) were prepared. Each plate was inoculated with 1:100 (or 1:10 for slow-growing strains, such as Micrococcus and Streptococcus) dilutions of up to 32 different microorganisms, using a Steers replicator block. The inoculated plates were incubated 35°-37° C. for 20 to 24 hours. In addition, a control plate, using BHI agar containing no test compound, was prepared and incubated at the beginning and end of each test.
# (§2) An additional plate containing a compound having known susceptibility patterns for the organisms being tested and belonging to the same antibiotic class as the test compound was also prepared and incubated as a further control, as well as to provide test-to-test comparability. Erythromycin A was used for this purpose.
# (§3) After incubation, each disk was read. The minimum inhibitory concentration (MIC) was defined as the lowest concentration of drug yielding no growth, a slight haze, or sparsely isolated colonies on the inoculum spot as compared to the growth control.
# [4] = test system: Staphylococcus aureus A5278; experiment: In vitro antibacterial activity, agar dilution MIC; format: cell-based; conditions: Staphylococcus aureus A5278, BHI agar, 35°-37° C., 20 to 24 hours
# Experimental: as §1, §2, §3
# [5] = test system: Streptococcus agalactiae 508; experiment: In vitro antibacterial activity, agar dilution MIC; format: cell-based
# Experimental: as §1, §2, §3
# [6] = test system: Enterobacter aerogenes ATCC 13048; experiment: In vitro antibacterial activity, agar dilution MIC; format: cell-based; conditions: Enterobacter aerogenes ATCC 13048, BHI agar, 35°-37° C., 20 to 24 hours
# Experimental: as §1, §2, §3
# [7] = test system: Pseudomonas aeruginosa 5263; experiment: In vitro antibacterial activity, agar dilution MIC; format: cell-based; conditions: Pseudomonas aeruginosa 5263, BHI agar, 35°-37° C., 20 to 24 hours
# Experimental: as §1, §2, §3
# [8] = test system: Providencia stuartii CMX 640; experiment: In vitro antibacterial activity, agar dilution MIC; format: cell-based; conditions: Providencia stuartii CMX 640, BHI agar, 35°-37° C., 20 to 24 hours
# Experimental: as §1, §2, §3
# Escherichia coli Juhl = experiment: In vitro antibacterial activity, agar dilution MIC; format: cell-based; conditions: Escherichia coli Juhl, BHI agar, 35°-37° C., 20 to 24 hours
# Experimental: as §1, §2, §3
# Micrococcus luteus 4698 = experiment: In vitro antibacterial activity, agar dilution MIC; format: cell-based
# Experimental: as §1, §2, §3
# [9] = test system: Streptococcus pyogenes EES61; experiment: In vitro antibacterial activity, agar dilution MIC; format: cell-based
# Experimental: as §1, §2, §3
# [10] = test system: Enterococcus faecium ATCC 8043; experiment: In vitro antibacterial activity, agar dilution MIC; format: cell-based
# Experimental: as §1, §2, §3
# Escherichia coli DC-2 = experiment: In vitro antibacterial activity, agar dilution MIC; format: cell-based; conditions: Escherichia coli DC-2, BHI agar, 35°-37° C., 20 to 24 hours
# Experimental: as §1, §2, §3
# [11] = test system: Streptococcus pyogenes 930 const; experiment: In vitro antibacterial activity, agar dilution MIC; format: cell-based; conditions: Streptococcus pyogenes 930 const, BHI agar, 35°-37° C., 20 to 24 hours
# Experimental: as §1, §2, §3
# [12] = test system: Staphylococcus aureus ATCC 6538P; experiment: In vitro antibacterial activity, agar dilution MIC; format: cell-based
# Experimental: as §1, §2, §3
# [13] = test system: Staphylococcus aureus CMX 642a; experiment: In vitro antibacterial activity, agar dilution MIC; format: cell-based
# Experimental: as §1, §2, §3
# [14] = test system: Streptococcus pyogenes 2548 induc; experiment: In vitro antibacterial activity, agar dilution MIC; format: cell-based
# Experimental: as §1, §2, §3
# [15] = test system: Streptococcus bovis A5169; experiment: In vitro antibacterial activity, agar dilution MIC; format: cell-based
# Experimental: as §1, §2, §3
# Pseudomonas cepacia 2961 = experiment: In vitro antibacterial activity, agar dilution MIC; format: cell-based; conditions: Pseudomonas cepacia 2961, BHI agar, 35°-37° C., 20 to 24 hours
# Experimental: as §1, §2, §3
# [16] = test system: Pseudomonas aeruginosa BMH10; experiment: In vitro antibacterial activity, agar dilution MIC; format: cell-based; conditions: Pseudomonas aeruginosa BMH10, BHI agar, 35°-37° C., 20 to 24 hours
# Experimental: as §1, §2, §3
# [17] = test system: Staphylococcus aureus 1775 Cipro R; experiment: In vitro antibacterial activity, agar dilution MIC; format: cell-based; conditions: Staphylococcus aureus 1775 Cipro R, BHI agar, 35°-37° C., 20 to 24 hours
# Experimental: as §1, §2, §3
# Escherichia coli H560 = experiment: In vitro antibacterial activity, agar dilution MIC; format: cell-based; conditions: Escherichia coli H560, BHI agar, 35°-37° C., 20 to 24 hours
# Experimental: as §1, §2, §3
# Escherichia coli KNK 437 = experiment: In vitro antibacterial activity, agar dilution MIC; format: cell-based; conditions: Escherichia coli KNK 437, BHI agar, 35°-37° C., 20 to 24 hours
# Experimental: as §1, §2, §3
# [18] = test system: Pseudomonas aeruginosa K799/WT; experiment: In vitro antibacterial activity, agar dilution MIC; format: cell-based; conditions: Pseudomonas aeruginosa K799/WT, BHI agar, 35°-37° C., 20 to 24 hours
# Experimental: as §1, §2, §3
# [19] = test system: Pseudomonas aeruginosa A5007; experiment: In vitro antibacterial activity, agar dilution MIC; format: cell-based; conditions: Pseudomonas aeruginosa A5007, BHI agar, 35°-37° C., 20 to 24 hours
# Experimental: as §1, §2, §3
# [20] = test system: Klebsiella pneumoniae ATCC 8045; experiment: In vitro antibacterial activity, agar dilution MIC; format: cell-based; conditions: Klebsiella pneumoniae ATCC 8045, BHI agar, 35°-37° C., 20 to 24 hours
# Experimental: as §1, §2, §3
# [21] = test system: Staphylococcus epidermidis 3519; experiment: In vitro antibacterial activity, agar dilution MIC; format: cell-based
# Experimental: as §1, §2, §3
# [22] = test system: Staphylococcus aureus NCTC 10649; experiment: In vitro antibacterial activity, agar dilution MIC; format: cell-based
# Experimental: as §1, §2, §3
# [23] = test system: Staphylococcus aureus CMX 553; experiment: In vitro antibacterial activity, agar dilution MIC; format: cell-based
# Experimental: as §1, §2, §3
# [24] = test system: Acinetobacter calcoaceticus CMX 669; experiment: In vitro antibacterial activity, agar dilution MIC; format: cell-based; conditions: Acinetobacter calcoaceticus CMX 669, BHI agar, 35°-37° C., 20 to 24 hours
# Experimental: as §1, §2, §3
# [25] = test system: Pseudomonas aeruginosa 2862; experiment: In vitro antibacterial activity, agar dilution MIC; format: cell-based; conditions: Pseudomonas aeruginosa 2862, BHI agar, 35°-37° C., 20 to 24 hours
# Experimental: as §1, §2, §3
# [26] = test system: Nocardia asteroides ATCC 9970; experiment: microbe, parasite or virus in culture; conditions: ATCC9970
# Experimental: as §1, §2, §3
# Escherichia coli SS = experiment: microbe, parasite or virus in culture
# Experimental: as §1, §2, §3
# Candida albicans CCH 442 = experiment: microbe, parasite or virus in culture; conditions: CCH442
# Experimental: as §1, §2, §3
# [27] = test system: Micrococcus luteus ATCC 9341; experiment: microbe, parasite or virus in culture
# Experimental: as §1, §2, §3
molecule,measurement,setting,value
"CC[C@H]1OC(=O)[C@H](C)[C@@H](O[C@H]2C[C@](C)(F)[C@@H](OC)[C@H](C)O2)[C@H](C)[C@@H](O[C@@H]2O[C@H](C)C[C@H](N(C)C)[C@H]2O)[C@](C)(O)C[C@@H](C)C(=O)[C@H](C)[C@@H](O)[C@]1(C)O [Example 9, (3""s)--3""-Desmethoxy-3""-fluoro-4""-O-methylerythromycin A]",MIC,[1]; read-out: MIC,50 µg/mL
same,MIC,[2],12.5 µg/mL
same,MIC,[3]; read-out: MIC,12.5 µg/mL
same,MIC,[4]; read-out: MIC,> 100 µg/mL
same,MIC,"[5]; Streptococcus agalactiae, 508",0.39 µg/mL
same,MIC,"[6]; Klebsiella aerogenes, ATCC13048, read-out: MIC",> 100 µg/mL
same,MIC,[7]; read-out: MIC,> 100 µg/mL
same,MIC,"[8]; CMX640, read-out: MIC",> 100 µg/mL
same,MIC,Escherichia coli Juhl; read-out: MIC,> 100 µg/mL
same,MIC,"Micrococcus luteus 4698; Micrococcus luteus, 4698",0.39 µg/mL
same,MIC,"[9]; Streptococcus pyogenes, EES61",0.39 µg/mL
same,MIC,"[10]; Enterococcus faecium, ATCC8043",0.39 µg/mL
same,MIC,"Escherichia coli DC-2; DC2, read-out: MIC",> 100 µg/mL
same,MIC,[11]; read-out: MIC,> 100 µg/mL
same,MIC,"[12]; Staphylococcus aureus, ATCC6538P",1.56 µg/mL
same,MIC,"[13]; Staphylococcus aureus, CMX642A",1.56 µg/mL
same,MIC,"[14]; Streptococcus pyogenes, 2548INDUC",3.1 µg/mL
same,MIC,"[15]; Streptococcus equinus, A5169",0.2 µg/mL
same,MIC,"Pseudomonas cepacia 2961; Burkholderia cepacia, read-out: MIC",> 100 µg/mL
same,MIC,[16]; read-out: MIC,> 100 µg/mL
same,MIC,"[17]; 1775CIPROR, read-out: MIC",> 100 µg/mL
same,MIC,Escherichia coli H560; read-out: MIC,> 100 µg/mL
same,MIC,"Escherichia coli KNK 437; KNK437, read-out: MIC",> 100 µg/mL
same,MIC,[18]; read-out: MIC,> 100 µg/mL
same,MIC,[19]; read-out: MIC,> 100 µg/mL
same,MIC,"[20]; ATCC8045, read-out: MIC",> 100 µg/mL
same,MIC,"[21]; Staphylococcus epidermidis, 3519",1.56 µg/mL
same,MIC,"[22]; Staphylococcus aureus, NCTC10649",1.56 µg/mL
same,MIC,"[23]; Staphylococcus aureus, CMX553",1.56 µg/mL
same,MIC,"[24]; CMX669, read-out: MIC",> 100 µg/mL
same,MIC,[25]; read-out: MIC,> 100 µg/mL
same,MIC,[26],0.2 µg/mL
same,MIC,Escherichia coli SS; Escherichia coli,1.56 µg/mL
same,MIC,Candida albicans CCH 442,> 100 µg/mL
same,MIC,"[27]; Micrococcus luteus, ATCC9341",0.2 µg/mL
"(3""S)-11-O,12-O-carbonyl-3""-fluoro-3""-desmethoxy-4""-O-methylerythromycin A [Example 15]",MIC,[1],3.1 µg/mL
same,MIC,[3],6.2 µg/mL
same,MIC,[4],> 100 µg/mL
same,MIC,"[5]; Streptococcus agalactiae 508, BHI agar, 35°-37° C., 20 to 24 hours",0.05 µg/mL
same,MIC,[6],> 100 µg/mL
same,MIC,[7],> 100 µg/mL
same,MIC,[8],> 100 µg/mL
same,MIC,Escherichia coli Juhl,100 µg/mL
same,MIC,"Micrococcus luteus 4698; Micrococcus luteus 4698, BHI agar, 35°-37° C., 20 to 24 hours",0.1 µg/mL
same,MIC,"[9]; Streptococcus pyogenes EES61, BHI agar, 35°-37° C., 20 to 24 hours",0.05 µg/mL
same,MIC,"[10]; Enterococcus faecium ATCC 8043, BHI agar, 35°-37° C., 20 to 24 hours",0.05 µg/mL
same,MIC,Escherichia coli DC-2,100 µg/mL
same,MIC,[11],> 100 µg/mL
same,MIC,"[12]; Staphylococcus aureus ATCC 6538P, BHI agar, 35°-37° C., 20 to 24 hours",0.39 µg/mL
same,MIC,"[13]; Staphylococcus aureus CMX 642a, BHI agar, 35°-37° C., 20 to 24 hours",0.39 µg/mL
same,MIC,"[14]; Streptococcus pyogenes 2548 induc, BHI agar, 35°-37° C., 20 to 24 hours",0.39 µg/mL
same,MIC,"[15]; Streptococcus bovis A5169, BHI agar, 35°-37° C., 20 to 24 hours",0.01 µg/mL
same,MIC,Pseudomonas cepacia 2961,25 µg/mL
same,MIC,[16],> 100 µg/mL
same,MIC,[17],> 100 µg/mL
same,MIC,Escherichia coli H560,50 µg/mL
same,MIC,Escherichia coli KNK 437,100 µg/mL
same,MIC,[18],100 µg/mL
same,MIC,[19],> 100 µg/mL
same,MIC,[20],100 µg/mL
same,MIC,"[21]; Staphylococcus epidermidis 3519, BHI agar, 35°-37° C., 20 to 24 hours",0.39 µg/mL
same,MIC,"[22]; Staphylococcus aureus NCTC 10649, BHI agar, 35°-37° C., 20 to 24 hours",0.39 µg/mL
same,MIC,"[23]; Staphylococcus aureus CMX 553, BHI agar, 35°-37° C., 20 to 24 hours",0.39 µg/mL
same,MIC,[24],100 µg/mL
same,MIC,[25],> 100 µg/mL
same,MIC,"Escherichia coli SS; Escherichia coli SS, BHI agar, 35°-37° C., 20 to 24 hours",0.2 µg/mL
same,MIC,"[27]; Micrococcus luteus ATCC 9341, BHI agar, 35°-37° C., 20 to 24 hours",0.01 µg/mL
